Assay [1] has as its target T1, Prostaglandin G/H synthase 1 (Homo sapiens, UniProt P23219). The experiment in a line: Inhibition of COX1 in human whole blood assessed as effect on A23187-induced thromboxane B2 production at 100 uM relative to control; values are per cent of control.
The target in assay [2] is T1, Prostaglandin G/H synthase 1. As to the kind of experiment: Inhibition of COX1 in human whole blood assessed as effect on A23187-induced thromboxane B2 production at 1 uM relative to control; values are per cent of control.
For assay [3] the target is unchanged. As to the kind of experiment: Inhibition of COX1 in human whole blood assessed as effect on A23187-induced thromboxane B2 production at 10 uM relative to control; values are per cent of control.
Assay [4] has the same target. As to the kind of experiment: Inhibition of COX1 in human whole blood assessed as effect on A23187-induced thromboxane B2 production. The format is tissue-based.
Assay [5] has the same target. The experiment in a line: Inhibition of COX1 in human whole blood assessed as effect on A23187-induced thromboxane B2 production at 3 uM relative to control; values are per cent of control.
For assay [6] the target is unchanged. As to the kind of experiment: Inhibition of COX1 in human whole blood assessed as effect on A23187-induced thromboxane B2 production at 30 uM relative to control; values are per cent of control.
For assay [7], the species on record is Homo sapiens. As to the kind of experiment: Selectivity for human COX2 over human COX1.
For assay [8], the target named is T2, Prostaglandin G/H synthase 2 (Homo sapiens) (UniProt P35354).
T2 sequence (whole entry): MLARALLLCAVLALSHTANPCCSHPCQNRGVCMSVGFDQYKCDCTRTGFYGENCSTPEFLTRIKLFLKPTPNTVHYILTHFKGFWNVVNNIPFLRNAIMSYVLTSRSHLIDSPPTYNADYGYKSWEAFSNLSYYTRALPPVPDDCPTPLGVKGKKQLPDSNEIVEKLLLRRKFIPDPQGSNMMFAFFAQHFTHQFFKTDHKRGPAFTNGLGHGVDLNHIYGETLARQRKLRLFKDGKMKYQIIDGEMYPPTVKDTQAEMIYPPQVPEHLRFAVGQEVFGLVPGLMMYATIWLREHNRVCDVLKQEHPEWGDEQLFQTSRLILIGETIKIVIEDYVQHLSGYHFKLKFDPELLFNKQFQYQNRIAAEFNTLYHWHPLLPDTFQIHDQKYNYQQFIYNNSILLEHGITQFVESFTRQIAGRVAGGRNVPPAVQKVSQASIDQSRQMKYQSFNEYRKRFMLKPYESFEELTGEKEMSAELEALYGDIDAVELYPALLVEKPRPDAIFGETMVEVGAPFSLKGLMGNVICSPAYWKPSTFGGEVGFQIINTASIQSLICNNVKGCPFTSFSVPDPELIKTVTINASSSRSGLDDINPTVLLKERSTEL
The experiment in a line: Inhibition of COX2 in human whole blood assessed as effect on LPS-induced thromboxane B2 production at 30 uM relative to control; values are per cent of control.

Residual activity, IC50 and Ratio IC50 data for 32 compounds are collected here from ChEMBL document CHEMBL1138326, “Structure-based design, synthesis, and biological evaluation of indomethacin derivatives as cyclooxygenase-2 inhibiting nitric oxide donors” (J Med Chem, 2007).

T1 sequence (P23219 whole entry): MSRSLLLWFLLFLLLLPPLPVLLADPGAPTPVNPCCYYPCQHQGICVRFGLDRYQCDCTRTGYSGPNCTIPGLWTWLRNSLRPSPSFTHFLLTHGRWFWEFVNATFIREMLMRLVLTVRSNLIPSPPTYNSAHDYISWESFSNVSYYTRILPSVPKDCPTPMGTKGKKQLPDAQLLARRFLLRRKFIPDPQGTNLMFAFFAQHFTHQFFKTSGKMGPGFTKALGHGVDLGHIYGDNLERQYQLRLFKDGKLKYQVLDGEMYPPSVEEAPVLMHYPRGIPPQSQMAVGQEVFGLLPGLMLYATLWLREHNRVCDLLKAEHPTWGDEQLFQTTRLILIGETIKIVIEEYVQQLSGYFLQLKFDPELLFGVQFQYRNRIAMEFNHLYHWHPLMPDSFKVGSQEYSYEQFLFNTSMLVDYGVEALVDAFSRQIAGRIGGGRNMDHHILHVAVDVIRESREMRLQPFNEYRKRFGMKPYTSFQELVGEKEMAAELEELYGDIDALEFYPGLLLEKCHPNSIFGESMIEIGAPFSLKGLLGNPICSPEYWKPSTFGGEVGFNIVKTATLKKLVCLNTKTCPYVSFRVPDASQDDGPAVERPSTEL

As to `COc1ccc2c(c1)c(CCO[N+](=O)[O-])c(C)n2C(=O)c1ccc(Cl)cc1`, the residual activity in assay [1] turned out to be 15%; in assay [2] it was 69%; in assay [3] it was 73%.
Broadly, the IC50 is the concentration at which inhibition is half-maximal. Regarding `COc1ccc2c(c1)c(CCNC(=O)c1ccc(CO[N+](=O)[O-])cc1)c(C)n2C(=O)c1ccc(Cl)cc1`, in assay [4], the IC50 is less than 1000 nM.
For `COc1ccc2c(c1)c(CC(=O)NCC(C)(C)CO[N+](=O)[O-])c(C)n2C(=O)c1ccc(Cl)cc1`, the residual activity in assay [1] amounted to 3%; in assay [2], 78%; in assay [3] it was 25%; in assay [5], 45%; in assay [6] it was 3%. Also, in assay [4], the IC50 amounted to 2600 nM.
`COc1ccc2c(c1)c(CC(=O)NCCCO[N+](=O)[O-])c(C)n2CC1CCCCC1`: the residual activity in assay [1] turned out to be 100%.
As for `Cc1c(CC(=O)NCCCO[N+](=O)[O-])c2cc(OS(N)(=O)=O)ccc2n1C(=O)c1ccc(Cl)cc1`, the residual activity was found to be 65% in assay [1], 46% in assay [8], 100% in assay [2] and 92% in assay [3]. Further, in assay [7], the Ratio IC50 is more than 4. For the same compound, in assay [4], the IC50 was more than 100000 nM.
With `COc1ccc2c(c1)c(CCO)c(C)n2C(=O)c1ccc(Cl)cc1`, the residual activity in assay [1] turned out to be 0%; in assay [2], 76%; in assay [3] it was 16%; in assay [5], 18%. In assay [4], the IC50 amounted to 2300 nM.
As for `COc1ccc2c(c1)c(CCOC(=O)NS(=O)(=O)NCCCO[N+](=O)[O-])c(C)n2C(=O)c1ccc(Cl)cc1`, the residual activity worked out at 61% in assay [1], 100% in assay [2] and 100% in assay [3].
For the compound `COc1ccc2c(c1)c(CCNC(=O)NCCCO[N+](=O)[O-])c(C)n2C(=O)c1ccc(Cl)cc1`, the residual activity in assay [1] came to 2%; in assay [2] it was 93%; in assay [3], 29%. Also, the Ratio IC50 in assay [7] was found to be 0.3. Further, the IC50 in assay [4] came to 3000 nM.
In the case of `COc1ccc2c(c1Cl)c(CC(=O)OCc1ccccc1)c(C)n2C(=O)c1ccc(Cl)cc1`, the residual activity in assay [1] was found to be 65%. Further, the IC50 in assay [4] is more than 100000 nM.
For `COc1ccc2c(c1)c(CC(=O)NCCCCO)c(C)n2C(=O)c1ccc(Cl)cc1`, the residual activity in assay [1] stood at 1%; in assay [2], 64%; in assay [3] it was 23%; in assay [5], 46%. Besides, the Ratio IC50 in assay [7] came to 2. Also, in assay [4], the IC50 is 2400 nM.
On to `COc1ccc2c(c1)c(CC(=O)NC(CO[N+](=O)[O-])(CO[N+](=O)[O-])CO[N+](=O)[O-])c(C)n2C(=O)c1ccc(Cl)cc1`, for which the residual activity is 1% in assay [1], 50% in assay [2], 11% in assay [3] and 16% in assay [5]. Moreover, in assay [4], the IC50 stood at 1200 nM.
As for `COc1ccc2c(c1)c(CC(=O)NOCCO)c(C)n2C(=O)c1ccc(Cl)cc1`, the residual activity in assay [1] was found to be 1%; in assay [3], 3%; in assay [5], 20%. Moreover, the IC50 in assay [4] is less than 1000 nM.
Regarding `Cc1c(CC(=O)NCCCO)c2cc(O)ccc2n1C(=O)c1ccc(Cl)cc1`, the residual activity was 8% in assay [1]; 4% in assay [8]; 83% in assay [2]; 40% in assay [3]; 58% in assay [5]; 7% in assay [6]. Besides, the IC50 in assay [4] stood at 5400 nM.
As for `Cc1c(CC(=O)O)c2cc(O)ccc2n1C(=O)c1ccc(Cl)cc1`, the residual activity stood at 18% in assay [1]; 0% in assay [8]; 100% in assay [2]; 55% in assay [3]; 80% in assay [5].
As to `COc1ccc2c(c1)c(CC(=O)O)c(C)n2Cc1ccc(S(C)(=O)=O)cc1`, the residual activity in assay [1] was 87%.
Consider `COc1ccc2c(c1)c(CC(=O)N(OC(C)=O)C(C)=O)c(C)n2C(=O)c1ccc(Cl)cc1`, for which the residual activity in assay [1] amounted to 6%; in assay [2] it was 39%; in assay [3], 14%. Moreover, the IC50 in assay [4] is less than 1000 nM.
Consider `COc1ccc2c(c1)c(CC(=O)NOCc1ccccc1)c(C)n2C(=O)c1ccc(Cl)cc1`, for which the residual activity in assay [1] was 0%. The IC50 in assay [4] is less than 300 nM.
Regarding `COc1ccc2c(c1)c(CCN)c(C)n2C(=O)c1ccc(Cl)cc1`, the residual activity worked out at 1% in assay [1], 78% in assay [8], 100% in assay [2] and 100% in assay [3]. For the same compound, the IC50 in assay [4] is more than 10000 nM.
Take `COc1ccc2c(c1)c(CCNS(=O)(=O)c1ccc(CO[N+](=O)[O-])cc1)c(C)n2C(=O)c1ccc(Cl)cc1`: the results for the residual activity in assay [1], in assay [2] and in assay [3] were 12%, 68% and 23%, respectively. Besides, the IC50 in assay [4] was 1900 nM.
Taken in the same sequence, the figures for `COc1ccc2c(c1)c(CC(=O)NOC(C)=O)c(C)n2C(=O)c1ccc(Cl)cc1` were 7%, 68%, 34% and 3600 nM.
On to `CCOC(=O)Cc1c(C)n(CC2CCCCC2)c2ccc(OC)cc12`, for which the residual activity in assay [1] turned out to be 85%.
`COc1ccc2c(c1)c(CCO)c(C)n2CC1CCCCC1`: the residual activity in assay [1] was 95%.
For `COc1ccc2c(c1)c(CCOC(=O)NCCCO[N+](=O)[O-])c(C)n2C(=O)c1ccc(Cl)cc1`, the figures for the residual activity in assay [1], in assay [2] and in assay [3] were 62%, 83% and 74%, respectively.
Take `COc1cc2c(CC(=O)OCc3ccccc3)c(C)n(C(=O)c3ccc(Cl)cc3)c2cc1Cl`: the residual activity in assay [1] amounted to 58%. The IC50 in assay [4] was more than 100000 nM.
With `COc1ccc2c(c1)c(CC(=O)NO)c(C)n2C(=O)c1ccc(Cl)cc1` [OXAMETACIN], the residual activity in assay [1] came out at 2%; in assay [2] it was 84%; in assay [3] it was 29%. In addition, the IC50 in assay [4] was found to be 2800 nM.
For `COc1ccc2c(c1)c(CCP(=O)(O)O)c(C)n2C(=O)c1ccc(Cl)cc1`, the residual activity in assay [1] was 76%.
Still for that read-out and setting: the same measure for `COc1ccc2c(c1)c(CC(=O)O)c(C)n2CC1CCCCC1`: 85%.
As to `Cc1c(CC(=O)NCCCO[N+](=O)[O-])c2cc(O)ccc2n1C(=O)c1ccc(Cl)cc1`, the residual activity in assay [1] is 1%; in assay [8] it was 2%; in assay [3], 27%; in assay [5], 74%; in assay [6], 1%. The IC50 in assay [4] was found to be 4700 nM.
Consider `COc1cc2c(CC(=O)O)c(C)n(C(=O)c3ccc(Cl)cc3)c2cc1Cl`, for which the residual activity in assay [1] is 13%; in assay [8] it was 0%; in assay [2], 61%; in assay [3] it was 24%; in assay [5] it was 41%; in assay [6], 2%. The Ratio IC50 in assay [7] came out at 0.4. In addition, the IC50 in assay [4] was determined as 1600 nM.
Take `COc1ccc2c(c1)c(CCOC(=O)NS(=O)(=O)OCCCO[N+](=O)[O-])c(C)n2C(=O)c1ccc(Cl)cc1`: the residual activity in assay [1] worked out at 44%.
Still for that read-out and setting: with `COc1ccc2c(c1)c(CC(=O)NCCCO[N+](=O)[O-])c(C)n2Cc1ccc(S(C)(=O)=O)cc1` the figure was 53%.
In the case of `COc1ccc2c(c1)c(CCO[N+](=O)[O-])c(C)n2CC1CCCCC1`, the residual activity in assay [1] is 93%.
